Measurements published in PubChem BioAssay (NCI).
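Abbreviation: GI50, concentration required for 50% inhibition of growth. Definition used: TGI = concentration required for complete inhibition of growth.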

What was measured:
Test in all cases: growth of human tumour cells (NCI), 384-well format
[1] = system: CAKI-1 renal
[2] = system: MALME-3M melanoma
[3] = system: A498 renal
[4] = system: OVCAR-8 ovarian
[5] = system: LOX IMVI melanoma
[6] = system: UO-31 renal
[7] = system: PC-3 prostate
[8] = system: MDA-MB-468 breast
[9] = system: MDA-MB-435 melanoma
[10] = system: NCI-H522 lung
[11] = system: NCI-H226 lung
[12] = system: NCI-H23 lung
[13] = system: MOLT-4 leukemia
[14] = system: SK-MEL-28 melanoma
[15] = system: NCI/ADR-RES ovarian
[16] = system: K-562 leukemia
[17] = system: MDA-MB-231 breast
[18] = system: KM12 colon
[19] = system: HT29 colon
[20] = system: A549 NSCLC
[21] = system: ACHN renal
[22] = system: HOP-92 NSCLC
[23] = system: SK-MEL-5 melanoma
[24] = system: SW-620 colon
[25] = system: SNB-19 CNS
[26] = system: CCRF-CEM leukemia
[27] = system: SF-295 CNS
[28] = system: SF-268 CNS
[29] = system: RPMI-8226 leukemia
[30] = system: COLO 205 colon
[31] = system: NCI-H322M lung
[32] = system: UACC-62 melanoma
[33] = system: TK-10 renal
[34] = system: 786-0 renal
[35] = system: OVCAR-5 ovarian
[36] = system: SN12C renal
[37] = system: SF-539 CNS
[38] = system: EKVX NSCLC
[39] = system: IGROV1 ovarian
[40] = system: OVCAR-4 ovarian
[41] = system: UACC-257 melanoma
[42] = system: SK-OV-3 ovarian
[43] = system: HCT-15 colon
[44] = system: DU-145 prostate
[45] = system: HOP-62 NSCLC
[46] = system: SNB-75 CNS
[47] = system: BT-549 breast
[48] = system: OVCAR-3 ovarian
[49] = system: RXF 393 renal
[50] = system: M14 melanoma
[51] = system: SR leukemia
[52] = system: HCC-2998 colon
[53] = system: NCI-H460 NSCLC
[54] = system: HL-60(TB) leukemia
[55] = system: HS 578T breast
[56] = system: MCF7 breast
[57] = system: T-47D breast

For C=CC(=O)N[C@H]1C=C(C)c2c(-c3cnc4ccccc4c3)c3c(N)ncnc3n2C1, which GI50 [1] is on record?
Its GI50 is 3.49 µM.

What about the TGI [1] of the same molecule?
Its TGI is 21.3 µM.

And the GI50 [2]?
Its GI50 is 11.7 µM.

What about the TGI [2] of the same molecule?
Its TGI is 24.1 µM.

And the GI50 [3]?
Its GI50 is 2.11 µM.

What about the TGI [3] of the same molecule?
Its TGI is 20.1 µM.

What about the GI50 [4] of the same molecule?
Its GI50 is 15.8 µM.

And the TGI [4]?
Its TGI is 35 µM.

And the GI50 [5]?
Its GI50 is 14.7 µM.

What about the TGI [5] of the same molecule?
Its TGI is 28.1 µM.

What about the GI50 [6] of the same molecule?
The GI50 was 12.2 µM.

And the TGI [6]?
Its TGI is greater than 100 µM.

What about the GI50 [7] of the same molecule?
Its GI50 is 34.1 µM.

What about the TGI [7] of the same molecule?
Its TGI is 98.8 µM.

And the GI50 [8]?
The GI50 was 0.0243 µM.

What about the TGI [8] of the same molecule?
Its TGI is 0.0646 µM.

What about the GI50 [9] of the same molecule?
Its GI50 is 31 µM.

What about the TGI [9] of the same molecule?
The TGI was 87 µM.

What about the GI50 [10] of the same molecule?
Its GI50 is 0.242 µM.

What about the TGI [10] of the same molecule?
Its TGI is 9.32 µM.

What about the GI50 [11] of the same molecule?
The GI50 was 5.39 µM.

What about the TGI [11] of the same molecule?
The TGI was 26.3 µM.

And the GI50 [12]?
The GI50 was 18.2 µM.

What about the TGI [12] of the same molecule?
The TGI was 40.6 µM.

And the GI50 [13]?
The GI50 was 5.47 µM.

And the TGI [13]?
The TGI was 17.5 µM.

What about the GI50 [14] of the same molecule?
The GI50 was 14.2 µM.

What about the TGI [14] of the same molecule?
The TGI was 46.2 µM.

What about the GI50 [15] of the same molecule?
The GI50 was 34.1 µM.

And the TGI [15]?
Its TGI is greater than 100 µM.

And the GI50 [16]?
Its GI50 is 23.9 µM.

What about the TGI [16] of the same molecule?
Its TGI is 80.6 µM.

What about the GI50 [17] of the same molecule?
Its GI50 is 13.7 µM.

What about the TGI [17] of the same molecule?
Its TGI is 35.4 µM.

And the GI50 [18]?
Its GI50 is 18.8 µM.

What about the TGI [18] of the same molecule?
The TGI was 36.3 µM.

And the GI50 [19]?
The GI50 was 17.5 µM.

What about the TGI [19] of the same molecule?
The TGI was 58.5 µM.

What about the GI50 [20] of the same molecule?
The GI50 was 11.1 µM.

And the TGI [20]?
The TGI was 30.2 µM.

What about the GI50 [21] of the same molecule?
The GI50 was 0.378 µM.

And the TGI [21]?
Its TGI is 18 µM.

And the GI50 [22]?
Its GI50 is 10.2 µM.

What about the TGI [22] of the same molecule?
The TGI was 33.1 µM.

And the GI50 [23]?
The GI50 was 13.2 µM.

What about the TGI [23] of the same molecule?
Its TGI is 26 µM.

And the GI50 [24]?
Its GI50 is 28.5 µM.

And the TGI [24]?
The TGI was 61.6 µM.

And the GI50 [25]?
Its GI50 is 27 µM.

What about the TGI [25] of the same molecule?
Its TGI is 73.3 µM.

And the GI50 [26]?
Its GI50 is 14.9 µM.

And the TGI [26]?
Its TGI is 28.2 µM.

And the GI50 [27]?
Its GI50 is 29.5 µM.

And the TGI [27]?
Its TGI is greater than 100 µM.

And the GI50 [28]?
The GI50 was 15.1 µM.

What about the TGI [28] of the same molecule?
Its TGI is 45.6 µM.

What about the GI50 [29] of the same molecule?
The GI50 was 10 µM.

What about the TGI [29] of the same molecule?
Its TGI is 22.1 µM.

What about the GI50 [30] of the same molecule?
The GI50 was 26.2 µM.

What about the TGI [30] of the same molecule?
Its TGI is 70.4 µM.

What about the GI50 [31] of the same molecule?
Its GI50 is 0.109 µM.

And the TGI [31]?
Its TGI is 16.4 µM.

What about the GI50 [32] of the same molecule?
Its GI50 is 6 µM.

What about the TGI [32] of the same molecule?
Its TGI is 18.9 µM.

And the GI50 [33]?
Its GI50 is 0.228 µM.

And the TGI [33]?
The TGI was 10.6 µM.

And the GI50 [34]?
Its GI50 is 12.7 µM.

What about the TGI [34] of the same molecule?
Its TGI is 28.8 µM.

What about the GI50 [35] of the same molecule?
Its GI50 is 26.2 µM.

And the TGI [35]?
The TGI was 74.1 µM.

And the GI50 [36]?
Its GI50 is 15.6 µM.

And the TGI [36]?
Its TGI is 63.9 µM.

What about the GI50 [37] of the same molecule?
Its GI50 is 15.1 µM.

What about the TGI [37] of the same molecule?
The TGI was 29.3 µM.

What about the GI50 [38] of the same molecule?
Its GI50 is 0.312 µM.

And the TGI [38]?
The TGI was 25.5 µM.

What about the GI50 [39] of the same molecule?
The GI50 was 0.683 µM.

What about the TGI [39] of the same molecule?
Its TGI is 8.36 µM.

And the GI50 [40]?
Its GI50 is 16.2 µM.

And the TGI [40]?
The TGI was 65.5 µM.

What about the GI50 [41] of the same molecule?
The GI50 was 18.9 µM.

What about the TGI [41] of the same molecule?
Its TGI is 48 µM.

And the GI50 [42]?
Its GI50 is 1.61 µM.

What about the TGI [42] of the same molecule?
Its TGI is 15.1 µM.

What about the GI50 [43] of the same molecule?
The GI50 was 25.2 µM.

And the TGI [43]?
The TGI was 82 µM.

What about the GI50 [44] of the same molecule?
The GI50 was 14.1 µM.

And the TGI [44]?
The TGI was 44.9 µM.

And the GI50 [45]?
The GI50 was 17.1 µM.

And the TGI [45]?
Its TGI is 76 µM.

And the GI50 [46]?
Its GI50 is 17.6 µM.

And the TGI [46]?
The TGI was 45.9 µM.

What about the GI50 [47] of the same molecule?
Its GI50 is 16.8 µM.

And the TGI [47]?
The TGI was 35.7 µM.

And the GI50 [48]?
Its GI50 is 7.32 µM.

What about the TGI [48] of the same molecule?
The TGI was 24.9 µM.

And the GI50 [49]?
The GI50 was 10 µM.

And the TGI [49]?
The TGI was 27.7 µM.

What about the GI50 [50] of the same molecule?
The GI50 was 13.2 µM.

What about the TGI [50] of the same molecule?
Its TGI is 31.9 µM.

And the GI50 [51]?
The GI50 was 2.45 µM.

What about the TGI [51] of the same molecule?
The TGI was 10.9 µM.

And the GI50 [52]?
Its GI50 is 19.3 µM.

And the TGI [52]?
Its TGI is 35.1 µM.

And the GI50 [53]?
Its GI50 is 14.8 µM.

What about the TGI [53] of the same molecule?
The TGI was 30 µM.

And the GI50 [54]?
Its GI50 is 26.7 µM.

And the TGI [54]?
The TGI was 41.6 µM.

What about the GI50 [55] of the same molecule?
Its GI50 is 12.8 µM.

What about the TGI [55] of the same molecule?
Its TGI is 26.4 µM.

And the GI50 [56]?
Its GI50 is 19.7 µM.

And the TGI [56]?
Its TGI is greater than 100 µM.

What about the GI50 [57] of the same molecule?
Its GI50 is 11.5 µM.

And the TGI [57]?
Its TGI is 82 µM.
